# Measured values reported in PubChem BioAssay (NCI).
#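 Method: 48-hour compound exposure of cells in 96-well plates, five concentrations, linear interpolation of endpoints. GI50 = concentration required for 50% inhibition of growth. Definition used: TGI = concentration required for complete inhibition of growth.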
# What was measured:
# Assay in all cases: NCI tumour cell line growth inhibition, 48 h
# [1] = system: CCRF-CEM leukemia
# [2] = system: MOLT-4 leukemia
# [3] = system: IGROV1 ovarian
# [4] = system: SF-539 CNS
# [5] = system: SK-MEL-2 melanoma
# [6] = system: SNB-75 CNS
# [7] = system: HOP-92 NSCLC
# [8] = system: OVCAR-8 ovarian
# [9] = system: SW-620 colon
# [10] = system: SR leukemia
# [11] = system: CAKI-1 renal
# [12] = system: HCT-116 colon
# [13] = system: HCT-15 colon
# [14] = system: SK-OV-3 ovarian
# [15] = system: A549 NSCLC
# [16] = system: OVCAR-4 ovarian
# [17] = system: UO-31 renal
# [18] = system: UACC-257 melanoma
# [19] = system: BT-549 breast
# [20] = system: SF-268 CNS
# [21] = system: EKVX NSCLC
# [22] = system: MALME-3M melanoma
# [23] = system: HCC-2998 colon
# [24] = system: HOP-62 NSCLC
# [25] = system: UACC-62 melanoma
# [26] = system: NCI-H23 lung
# [27] = system: PC-3 prostate
# [28] = system: U251 CNS
# [29] = system: DU-145 prostate
# [30] = system: M14 melanoma
# [31] = system: SN12C renal
# [32] = system: NCI/ADR-RES ovarian
# [33] = system: K-562 leukemia
# [34] = system: KM12 colon
# [35] = system: TK-10 renal
# [36] = system: MDA-MB-231 breast
# [37] = system: HL-60(TB) leukemia
# [38] = system: 786-0 renal
# [39] = system: T-47D breast
# [40] = system: MDA-MB-435
# [41] = system: NCI-H226 lung
# [42] = system: OVCAR-5 ovarian
# [43] = system: A498 renal
# [44] = system: SF-295 CNS
# [45] = system: COLO 205 colon
# [46] = system: LOX IMVI melanoma
# [47] = system: SNB-19 CNS
# [48] = system: MCF7 breast
# [49] = system: OVCAR-3 ovarian
# [50] = system: RPMI-8226 leukemia
# [51] = system: HS 578T breast
# [52] = system: HT29 colon
# [53] = system: RXF 393 renal
# [54] = system: NCI-H460 lung
# [55] = system: ACHN renal
# [56] = system: SK-MEL-5 melanoma
# [57] = system: NCI-H522 lung
smiles,measurement,setting,value
Clc1ccc(CNc2ccc3nc(CCC4CCCCC4)[nH]c3c2)cc1,GI50,[1],3.27 µM
same,TGI,[1],> 100 µM
same,GI50,[2],2.52 µM
same,TGI,[2],8.23 µM
same,GI50,[3],3 µM
same,TGI,[3],36.9 µM
same,GI50,[4],2.14 µM
same,TGI,[4],4.83 µM
same,GI50,[5],2.24 µM
same,TGI,[5],5.12 µM
same,GI50,[6],1.91 µM
same,TGI,[6],5.81 µM
same,GI50,[7],1.47 µM
same,TGI,[7],3.8 µM
same,GI50,[8],3.18 µM
same,TGI,[8],19.9 µM
same,GI50,[9],1.78 µM
same,TGI,[9],3.7 µM
same,GI50,[10],3.15 µM
same,TGI,[10],9.92 µM
same,GI50,[11],2.46 µM
same,TGI,[11],6.53 µM
same,GI50,[12],1.93 µM
same,TGI,[12],4.96 µM
same,GI50,[13],1.83 µM
same,TGI,[13],5.64 µM
same,GI50,[14],2.32 µM
same,TGI,[14],5.95 µM
same,GI50,[15],3.14 µM
same,TGI,[15],> 100 µM
same,GI50,[16],3.5 µM
same,TGI,[16],90.7 µM
same,GI50,[17],1.49 µM
same,TGI,[17],3.29 µM
same,GI50,[18],2.3 µM
same,TGI,[18],6.3 µM
same,GI50,[19],2.14 µM
same,TGI,[19],7.24 µM
same,GI50,[20],3.13 µM
same,TGI,[20],29.9 µM
same,GI50,[21],2.2 µM
same,TGI,[21],7.06 µM
same,GI50,[22],1.77 µM
same,TGI,[22],4.08 µM
same,GI50,[23],1.81 µM
same,TGI,[23],3.41 µM
same,GI50,[24],2.01 µM
same,TGI,[24],4.16 µM
same,GI50,[25],1.76 µM
same,TGI,[25],3.41 µM
same,GI50,[26],2.07 µM
same,TGI,[26],4.94 µM
same,GI50,[27],2.66 µM
same,TGI,[27],10.9 µM
same,GI50,[28],1.73 µM
same,TGI,[28],3.47 µM
same,GI50,[29],3.7 µM
same,TGI,[29],23.2 µM
same,GI50,[30],1.93 µM
same,TGI,[30],3.95 µM
same,GI50,[31],2.76 µM
same,TGI,[31],11.5 µM
same,GI50,[32],2.5 µM
same,TGI,[32],7.97 µM
same,GI50,[33],2.09 µM
same,TGI,[33],5.02 µM
same,GI50,[34],2.49 µM
same,TGI,[34],7 µM
same,GI50,[35],2.61 µM
same,TGI,[35],7.87 µM
same,GI50,[36],1.64 µM
same,TGI,[36],3.18 µM
same,GI50,[37],2.03 µM
same,TGI,[37],4.7 µM
same,GI50,[38],2.03 µM
same,TGI,[38],4.4 µM
same,GI50,[39],2.24 µM
same,TGI,[39],6.55 µM
same,GI50,[40],1.88 µM
same,TGI,[40],4.1 µM
same,GI50,[41],1.76 µM
same,TGI,[41],4.16 µM
same,GI50,[42],2.39 µM
same,TGI,[42],6.68 µM
same,GI50,[43],1.36 µM
same,TGI,[43],3.4 µM
same,GI50,[44],1.96 µM
same,TGI,[44],4.07 µM
same,GI50,[45],1.93 µM
same,TGI,[45],3.73 µM
same,GI50,[46],1.7 µM
same,TGI,[46],3.1 µM
same,GI50,[47],3.12 µM
same,TGI,[47],14.8 µM
same,GI50,[48],1.8 µM
same,TGI,[48],4.63 µM
same,GI50,[49],3.02 µM
same,TGI,[49],12.2 µM
same,GI50,[50],2.09 µM
same,TGI,[50],5.02 µM
same,GI50,[51],2.12 µM
same,TGI,[51],6.37 µM
same,GI50,[52],1.9 µM
same,TGI,[52],4.66 µM
same,GI50,[53],1.97 µM
same,TGI,[53],4.95 µM
same,GI50,[54],2.15 µM
same,TGI,[54],4.82 µM
same,GI50,[55],3.03 µM
same,TGI,[55],11.2 µM
same,GI50,[56],1.69 µM
same,TGI,[56],3.09 µM
same,GI50,[57],1.71 µM
same,TGI,[57],3.95 µM
